Source: patent US11571421B2, “GABAA positive allosteric modulator compounds for treatment of itch and/or dermatitis” (NeuroCycle Therapeutics, Inc., priority 2018, dated 2023)
Values joined by “and” are separate entries in the source; they are usually repeats but may differ in a detail not shown here. Identical values can stand only once.

Experiments:
Format in all cases: in vivo
[1] = test system: Chloroquine (CQ)-Induced Itch Model in Male C57BL/6 Mice; assay: Chloroquine Induced Itch Model, PF-06372865 (Example 1)
Protocol: PF-06372865 was evaluated as an antipruritic and/or antidermatitis agent using a Chloroquine Induced Itch Model in male C57BL/6 mice.
Male C57BL/6 Mice (8-10 weeks) were used in the study. Animals were procured from CRL, Hylasco (CPSCEA registered animal supplier).
Mice were housed one per cage and maintained at controlled environmental conditions with 12-h light and dark cycles. The temperature and humidity of the room were maintained between 22±3° C. and 55±5%, respectively. The maximum and minimum temperature and relative humidity in the experimental rooms were recorded once daily. […]
PF-06372865 was weighed into a clean mortar. Liquefied Solutol (i.e., Polyoxyl 15 Hydroxystearate) was added drop wise and triturated using a pestle for 2-3 minutes, then Glycerol formal was added and mixed in same fashion. The volume was made up by slowly adding the required volume of water. The resulting mixture was mixed well using mild vortexing to provide a homogeneous suspension. (Details in below chart)
27 mg of chloroquine phosphate was weighed in a clean glass container. 6 mL PBS was added, and the resulting mixture was mixed well using mild vortexing to form the desired strength solution.
The right-side cheek area of all the animals was shaved with animal clippers 1 day prior to the experiment. Animals were randomized into different treatment groups (n=9/group) based on body weight to avoid variability in weights across groups. NCT10004 Phosphate and PF-06372865 formulations and chloroquine phosphate solution were prepared on the day of the experiment.
(§1) Animals were dosed per oral with respective treatment group using a dose volume of 10 ml/kg. Times of dosing were recorded. Immediately after compound treatment, animals were kept in an empty transparent chamber (23 cm length×17 cm width) for acclimatization and observation.
(§2) Ninety (90) minutes post compound dosing, 50-μl of chloroquine phosphate solution (a 200-μg dose) was injected intracutaneously into the animal's right cheek. Animals were returned to the same chamber for observation. Animals were observed by an observer blind to the treatment group for a period of 30 minutes post chloroquine injection. Total number of bouts of scratching directed at the ipsilateral cheek were recorded for 30 minutes.

Male C57BL/6 Mice [2] = assay: Sedative effects, open field arena activity (Example 4); conditions: per oral 1, 3, 10, 30 and 100 mg/kg; recorded for one hour starting one hour after injection
Protocol: In order to exclude any sedative effects PF-06372865 might have on mice, a dose-response experiment is included. The mice receive per oral injections of PF-06372865 in varying doses (vehicle, 1, 3, 10, 30 and 100 mg/kg). After injection, the mice are placed in an open field arena and their activity is recorded for one hour starting one hour after injection.

Male C57BL/6 Mice [3] = assay: Sedation, behavioral change and clinical signs observed in Example 1
Protocol: as §1, §2

[4] = test system: Bile Acid Itch Model in Male C57BL/6 Mice; assay: Bile acid (deoxycholic acid) induced itch model (Example 9); conditions: 10 mg/kg oral gavage 90 min before deoxycholic acid (25 μg)
Protocol: In order to assess the antipruritic effect of PF-06372865 in another clinically relevant disease, the bile acid induced itch model is used. In the bile acid induced itch model, the fur at the base of the neck is shaved, and mice are placed in individual cylinders on a glass shelf. Mice are acclimatized to the experimental room, restraint apparatus and investigators for 2-hour periods on 2 successive days before experiments. The mice are dosed with 10 mg/kg PF-06372865 by oral gavage ninety (90) minutes before they are injected with deoxycholic acid. Deoxycholic acid (25 μg in DMSO), is administered by intradermal injection at the nape of the neck. Scratching behavior is quantified by 2 observers unaware of tested agents. A scratch is defined as lifting the hind limb to the injection site and then a placing of the paw on the floor, regardless of the number of strokes. If counts differed by greater than 5 scratches over a 30-minute period, both observers reevaluate the records. The number of scratching bouts directed to the nape of the neck between 15 to 210 min after injection are recorded.

[5] = 0.3 mg/kg PO, individual animals
[6] = 10 mg/kg PO, individual animals
[7] = 30 mg/kg PO, individual animals

## CCn1cnc2c(-c3ccc(F)c(-c4ccc(S(=O)(=O)CC)cc4OC)c3)cnnc21 [PF-06372865]
[1]; 0.3 mg/kg PO, MEAN, N=9
  Scratching bouts (Nos.) in 30 min, 0-5 min: 2.22 Nos.
  Scratching bouts (Nos.) in 30 min, 5-10 min: 6.67 Nos.
  Scratching bouts (Nos.) in 30 min, 10-15 min: 26.22 Nos.
  Scratching bouts (Nos.) in 30 min, 15-20 min: 24.67 Nos.
  Scratching bouts (Nos.) in 30 min, 20-25 min: 21.00 Nos.
  Scratching bouts (Nos.) in 30 min, 25-30 min: 0.00 Nos.
  Total Scratching bouts: 80.78 Nos./30 min
[1]; [5]
  Scratching bouts (Nos.) in 30 min, 0-5 min: 0 Nos. (6×) and 1 Nos. and 15 Nos. and 4 Nos.
  Scratching bouts (Nos.) in 30 min, 5-10 min: 56 Nos. and 0 Nos. (6×) and 1 Nos. and 3 Nos.
  Scratching bouts (Nos.) in 30 min, 10-15 min: 47 Nos. and 0 Nos. (3×) and 19 Nos. and 46 Nos. and 76 Nos. and 21 Nos. and 27 Nos.
  Scratching bouts (Nos.) in 30 min, 15-20 min: 10 Nos. and 25 Nos. (2×) and 39 Nos. and 13 Nos. and 36 Nos. and 31 Nos. and 11 Nos. and 32 Nos.
  Scratching bouts (Nos.) in 30 min, 20-25 min: 0 Nos. (3×) and 49 Nos. and 33 Nos. and 27 Nos. (2×) and 24 Nos. and 29 Nos.
  Scratching bouts (Nos.) in 30 min, 25-30 min: 0 Nos.
  Total Scratching bouts: 113 Nos./30 min and 74 Nos./30 min and 25 Nos./30 min and 72 Nos./30 min and 33 Nos./30 min and 110 Nos./30 min and 149 Nos./30 min and 56 Nos./30 min and 95 Nos./30 min
[1]; 1 mg/kg PO, MEAN, N=9
  Scratching bouts (Nos.) in 30 min, 0-5 min: 1.22 Nos.
  Scratching bouts (Nos.) in 30 min, 5-10 min: 20.56 Nos.
  Scratching bouts (Nos.) in 30 min, 10-15 min: 9.11 Nos.
  Scratching bouts (Nos.) in 30 min, 15-20 min: 23.11 Nos.
  Scratching bouts (Nos.) in 30 min, 20-25 min: 8.33 Nos.
  Scratching bouts (Nos.) in 30 min, 25-30 min: 8.11 Nos.
  Total Scratching bouts: 70.44 Nos./30 min
[1]; 1 mg/kg PO, individual animals
  Scratching bouts (Nos.) in 30 min, 0-5 min: 0 Nos. (6×) and 1 Nos. and 8 Nos. and 2 Nos.
  Scratching bouts (Nos.) in 30 min, 5-10 min: 22 Nos. and 0 Nos. (2×) and 18 Nos. (2×) and 13 Nos. and 62 Nos. and 49 Nos. and 3 Nos.
  Scratching bouts (Nos.) in 30 min, 10-15 min: 9 Nos. (2×) and 0 Nos. (3×) and 13 Nos. and 1 Nos. and 4 Nos. and 46 Nos.
  Scratching bouts (Nos.) in 30 min, 15-20 min: 41 Nos. and 14 Nos. and 28 Nos. (2×) and 16 Nos. and 45 Nos. and 25 Nos. and 11 Nos. and 0 Nos.
  Scratching bouts (Nos.) in 30 min, 20-25 min: 28 Nos. and 0 Nos. (5×) and 18 Nos. and 8 Nos. and 21 Nos.
  Scratching bouts (Nos.) in 30 min, 25-30 min: 6 Nos. and 25 Nos. and 4 Nos. and 0 Nos. (4×) and 14 Nos. and 24 Nos.
  Total Scratching bouts: 106 Nos./30 min and 39 Nos./30 min and 81 Nos./30 min and 26 Nos./30 min and 93 Nos./30 min and 95 Nos./30 min and 71 Nos./30 min and 22 Nos./30 min and 101 Nos./30 min
[1]; 3 mg/kg PO, MEAN, N=9
  Scratching bouts (Nos.) in 30 min, 0-5 min: 4.89 Nos.
  Scratching bouts (Nos.) in 30 min, 5-10 min: 3.89 Nos.
  Scratching bouts (Nos.) in 30 min, 10-15 min: 11.44 Nos.
  Scratching bouts (Nos.) in 30 min, 15-20 min: 9.89 Nos.
  Scratching bouts (Nos.) in 30 min, 20-25 min: 4.33 Nos.
  Scratching bouts (Nos.) in 30 min, 25-30 min: 3.44 Nos.
  Total Scratching bouts: 37.89 Nos./30 min
[1]; 3 mg/kg PO, individual animals
  Scratching bouts (Nos.) in 30 min, 0-5 min: 16 Nos. and 0 Nos. (4×) and 19 Nos. and 1 Nos. and 3 Nos. and 5 Nos.
  Scratching bouts (Nos.) in 30 min, 5-10 min: 0 Nos. (7×) and 33 Nos. and 2 Nos.
  Scratching bouts (Nos.) in 30 min, 10-15 min: 44 Nos. and 4 Nos. and 0 Nos. (4×) and 10 Nos. and 16 Nos. and 29 Nos.
  Scratching bouts (Nos.) in 30 min, 15-20 min: 17 Nos. and 14 Nos. and 33 Nos. and 0 Nos. (4×) and 3 Nos. and 22 Nos.
  Scratching bouts (Nos.) in 30 min, 20-25 min: 13 Nos. and 0 Nos. (5×) and 14 Nos. and 3 Nos. and 9 Nos.
  Scratching bouts (Nos.) in 30 min, 25-30 min: 9 Nos. and 0 Nos. (5×) and 3 Nos. and 15 Nos. and 4 Nos.
  Total Scratching bouts: 99 Nos./30 min and 18 Nos./30 min and 66 Nos./30 min and 29 Nos./30 min and 24 Nos./30 min and 59 Nos./30 min and 3 Nos./30 min and 12 Nos./30 min and 31 Nos./30 min
[1]; 10 mg/kg PO, MEAN, N=9
  Scratching bouts (Nos.) in 30 min, 0-5 min: 0.00 Nos.
  Scratching bouts (Nos.) in 30 min, 5-10 min: 0.00 Nos.
  Scratching bouts (Nos.) in 30 min, 10-15 min: 7.33 Nos.
  Scratching bouts (Nos.) in 30 min, 15-20 min: 4.11 Nos.
  Scratching bouts (Nos.) in 30 min, 20-25 min: 2.78 Nos.
  Scratching bouts (Nos.) in 30 min, 25-30 min: 1.11 Nos.
  Total Scratching bouts: 15.33 Nos./30 min
[1]; [6]
  Scratching bouts (Nos.) in 30 min, 0-5 min: 0 Nos.
  Scratching bouts (Nos.) in 30 min, 5-10 min: 0 Nos.
  Scratching bouts (Nos.) in 30 min, 10-15 min: 0 Nos. (7×) and 33 Nos. (2×)
  Scratching bouts (Nos.) in 30 min, 15-20 min: 0 Nos. (6×) and 8 Nos. and 3 Nos. and 26 Nos.
  Scratching bouts (Nos.) in 30 min, 20-25 min: 0 Nos. (6×) and 12 Nos. and 9 Nos. and 4 Nos.
  Scratching bouts (Nos.) in 30 min, 25-30 min: 2 Nos. (2×) and 0 Nos. (6×) and 6 Nos.
  Total Scratching bouts: 2 Nos./30 min and 14 Nos./30 min and 41 Nos./30 min and 33 Nos./30 min and 0 Nos./30 min (2×) and 15 Nos./30 min and 3 Nos./30 min and 30 Nos./30 min
[1]; 30 mg/kg PO, MEAN, N=9
  Scratching bouts (Nos.) in 30 min, 0-5 min: 0.00 Nos.
  Scratching bouts (Nos.) in 30 min, 5-10 min: 0.00 Nos.
  Scratching bouts (Nos.) in 30 min, 10-15 min: 0.00 Nos.
  Scratching bouts (Nos.) in 30 min, 15-20 min: 0.00 Nos.
  Scratching bouts (Nos.) in 30 min, 20-25 min: 0.00 Nos.
  Scratching bouts (Nos.) in 30 min, 25-30 min: 0.00 Nos.
  Total Scratching bouts: 0.00 Nos./30 min
[1]; [7]
  Scratching bouts (Nos.) in 30 min, 0-5 min: 0 Nos.
  Scratching bouts (Nos.) in 30 min, 5-10 min: 0 Nos.
  Scratching bouts (Nos.) in 30 min, 10-15 min: 0 Nos.
  Scratching bouts (Nos.) in 30 min, 15-20 min: 0 Nos.
  Scratching bouts (Nos.) in 30 min, 20-25 min: 0 Nos.
  Scratching bouts (Nos.) in 30 min, 25-30 min: 0 Nos.
  Total Scratching bouts: 0 Nos./30 min
[1]; at 0.3, 1, 3, 10 and 30 mg/kg doses
  scratching bouts compared to vehicle treatment, significance: Statistically significant decrease
[1]; quantified for 30 minutes post CQ injection, 0.3-30 mg/kg PO
  total number of scratching bouts, dose response: dose dependent decrease
Male C57BL/6 Mice [2]
  open field activity compared to vehicle: significant increase in activity
Male C57BL/6 Mice [3]; 3 mg/kg PO
  sedation: Minimal sedation
Male C57BL/6 Mice [3]; any of the PF-06372865 treatment groups (0.3-30 mg/kg PO)
  other behavioral change or clinical sign: No other behavioral change or clinical sign were observed
Male C57BL/6 Mice [3]; at 10 mg/kg and 30 mg/kg PO
  sedation: Dose dependent increase in sedation
[4]
  scratching bouts compared to vehicle injection: significant reduction in scratching bouts
